“Also recorded” adds a separate entry of the source. Where two headings read alike, the source gives them in different places. Where a SMILES comes first, the peptide text is derived from it.
What was measured:
[1] = tested on: kappa-opioid receptor (KOR); conditions: literature reports; cited from earlier work
κ opioid receptors (KOR) = type: binding; conditions: for Ki: [3H]diprenorphine
Experimental: (§1) Opioid receptor affinities were determined for the cyclic tetrapeptides using Chinese hamster ovary cells stably expressing κ, μ and δ opioid receptors, and their efficacies at κ opioid receptors were determined in the adenylyl cyclase assay as previously described (Arttamangkul, et al., J. Med. Chem. 1997, 40, 1211-1218; Soderstrom, et al., Eur. J. Pharmacol. 1997, 338, 191-197). [^3H]Diprenorphine, [^3H][D-Ala^2,NMePhe^4,glyol]enkephalin and [^3H]cyclo[D-Pen^2,D-Pen^5]enkephalin were used as the radioligands in the binding assays for κ, μ and δ opioid receptors, respectively. In the adenylyl cyclase assay, the efficacies were determined by measuring the inhibition of adenylyl cyclase by 10 μM of the peptides relative to dynorphin A-(1-13) amide (100%).
(§2) The study was done using [^3H]diprenorphine, [^3][D-Ala^2,NMePhe^4,glyol]enkephalin and [^3H]cyclo[D-Pen^2,D-Pen^5]enkephalin binding to CHO membranes expressing KOR, MOR and DOR, respectively.

μ opioid receptors (MOR) = target: T1, μ opioid receptors (MOR) (Rattus norvegicus, UniProt P33535); assay: Radioligand binding, μ opioid receptor, CHO cells ([3H][D-Ala2,NMePhe4,glyol]enkephalin)
T1 construct: expressed in transfected cells
Experimental: as §1, §2

δ opioid receptors (DOR) = target: T2, δ opioid receptors (DOR) (Mus musculus, UniProt P32300); assay: Radioligand binding, δ opioid receptor, CHO cells ([3H]cyclo[D-Pen2,D-Pen5]enkephalin)
T2 construct: expressed in transfected cells
Experimental: as §1, §2

κ opioid receptors = target: T3, κ opioid receptors (Rattus norvegicus, UniProt P34975); assay: Adenylyl cyclase assay (efficacy at κ opioid receptors); type: cell-based; conditions: 10 μM peptide; relative to dynorphin A-(1-13) amide (100%)
T3 construct: expressed in transfected cells
Experimental: as §1

C57B1/6J mice [2] = assay: 55° C. warm-water tail-withdrawal assay, agonist (antinociceptive) activity; type: in vivo, mouse; conditions: for agonist activity in the 55° C. warm water tail withdrawal assay: i.c.v. administration; for pattern of opioid activity in vivo: tail-withdrawal assay
Experimental: (§3) An antinociceptive (analgesic) assay was performed to test the KOR agonist activity of cyclic tetrapeptides cyclo[Trp-Phe-D-Pro-Phe] […] After determining baseline tail-withdrawal latencies, mice received a single intracerebroventricular (i.c.v.) dose of vehicle (artificial cerebrospinal fluid, 146 mM NaCl, 2.7 mM KCl, 1.2 mM, CaCl2, 1.0 mM MgCl2) or a dose of test compound i.c.v. and the tail-withdrawal latency was again measured. For i.c.v. injections, each mouse was lightly anesthetized with isoflurane, an incision was made in the scalp, and the injection was made 2 mm lateral and 2 mm caudal to bregma at a depth of 3 mm directly into the lateral ventricle, as detailed previously (McLaughlin et al., 1999). The volume of these injections was 5 μl, using a 10-μl Hamilton microliter syringe. Reference agonists and antagonists were administered either subcutaneously (s.c.) or interperitoneally (i.p.) in 0.9% saline at the doses and times indicated in the figure legends (negative numbers indicate time prior to tail-withdrawal assay).

KOR = target: T4, KOR (Mus musculus, UniProt P33534); assay: 55° C. warm-water tail-withdrawal assay, antagonism of the KOR selective agonist U50,488; type: in vivo; conditions: for antagonism of the KOR selective agonist U50,488: tested 2-2.5 hours after peptide administration, i.c.v.; for duration of KOR antagonist activity: mice, tail-withdrawal assay
T4 construct: from tissue; host or cells: living C57Bl/6J mice (in vivo)
Experimental: as §3
The ability of the cyclic tetrapeptides to function as KOR antagonists were studied by assessing the ability to antagonize the KOR selective agonist U50,488. […] Briefly, the antagonistic activity was tested 2-2.5 hours after peptide administration.
The duration of KOR antagonism of the cyclic tetrapeptides was studied.

KOR in mouse brain = target: T5, KOR in mouse brain (Mus musculus, UniProt P33534); assay: Affinity for KOR in mouse brain; type: binding
T5 construct: from tissue; host or cells: mouse brain

MOR = target: T6, MOR (Mus musculus, UniProt P42866); assay: 55° C. warm-water tail-withdrawal assay, antagonism of the MOR selective agonist morphine; type: in vivo; conditions: mice
T6 construct: from tissue; host or cells: living C57Bl/6J mice (in vivo)
Experimental: as §3
(§4) The ability of JVA-2802 to selectively antagonize an opioid receptor was studied. Briefly, the antagonistic activity of JVA-2802 was studied for MOR, DOR, and KOR activity by the ability to antagonize the MOR selective agonist morphine, the DOR selective agonist SNC-80, and the KOR selective agonist U50,488.

DOR = target: T7, DOR (Mus musculus, UniProt P32300); assay: 55° C. warm-water tail-withdrawal assay, antagonism of the DOR selective agonist SNC-80; type: in vivo; conditions: mice
T7 construct: from tissue; host or cells: living C57Bl/6J mice (in vivo)
Experimental: as §3, §4

C57B1/6J mice [3] = assay: Stress-induced reinstatement of cocaine conditioned place preference; type: in vivo, mouse; conditions: 3 nmol i.c.v. 40 minutes prior to forced swim stress
Experimental: The establishment of cocaine conditioned place preference (CPP), extinction and stress-induced reinstatement of cocaine CPP were preformed in C57B1/6J mice as previously described (Carey, A. N.; Borozny, K.; Aldrich, J. V.; McLaughlin, J. P. Reinstatement of cocaine place-conditioning prevented by the peptide kappa-opioid receptor antagonist arodyn. Eur. J. Pharmacol. 2007, 569, 84-89). […] Place conditioning subsequently began immediately following cocaine administration (10 mg/kg s.c), whereupon mice were consistently confined for 30 min in the appropriate compartment in the CPP apparatus. Conditioning with assay vehicle (0.9% saline) followed 4 hours later in a similar manner, but paired to the opposite chamber. This conditioning cycle was repeated once on each of four days. On the fifth day, mice were again allowed to freely move through the apparatus. […]
One group of animals was then subjected to a 2-day forced swim stress protocol (with a single long swim (15 minutes) on day 1, and a series of four 6-minutes trials on day 2) to produce reinstatement of cocaine CPP. […] One hour after the final exposure to forced swim stress, the place preference responses of the mice were determined as described above to determine possible reinstatement of cocaine CPP (FIG. 6, middle panel). […]

[4] = CHO membranes expressing KOR, read-out: KOR Ki
[5] = CHO membranes expressing MOR, read-out: MOR Ki
[6] = CHO membranes expressing DOR, read-out: DOR Ki
[7] = CHO cells stably expressing κ receptors, (n) in brackets, read-out: Ki (nM ± SEM) κ
[8] = CHO cells stably expressing μ receptors, (n) in brackets, read-out: Ki (nM ± SEM) μ
[9] = CHO cells stably expressing δ receptors, (n) in brackets, read-out: Ki (nM ± SEM) δ

T1 sequence (P33535 whole entry): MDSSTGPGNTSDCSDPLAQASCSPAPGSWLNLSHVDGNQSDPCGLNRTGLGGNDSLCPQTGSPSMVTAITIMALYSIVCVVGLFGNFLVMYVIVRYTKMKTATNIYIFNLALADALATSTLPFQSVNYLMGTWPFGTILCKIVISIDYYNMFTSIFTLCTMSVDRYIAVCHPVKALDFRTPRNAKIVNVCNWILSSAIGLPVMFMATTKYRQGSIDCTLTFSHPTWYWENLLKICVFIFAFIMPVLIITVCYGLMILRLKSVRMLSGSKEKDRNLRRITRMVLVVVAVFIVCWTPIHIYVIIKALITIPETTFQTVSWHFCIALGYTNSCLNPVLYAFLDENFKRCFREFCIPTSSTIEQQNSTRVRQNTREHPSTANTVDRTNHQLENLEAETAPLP
T2 sequence (P32300 whole entry): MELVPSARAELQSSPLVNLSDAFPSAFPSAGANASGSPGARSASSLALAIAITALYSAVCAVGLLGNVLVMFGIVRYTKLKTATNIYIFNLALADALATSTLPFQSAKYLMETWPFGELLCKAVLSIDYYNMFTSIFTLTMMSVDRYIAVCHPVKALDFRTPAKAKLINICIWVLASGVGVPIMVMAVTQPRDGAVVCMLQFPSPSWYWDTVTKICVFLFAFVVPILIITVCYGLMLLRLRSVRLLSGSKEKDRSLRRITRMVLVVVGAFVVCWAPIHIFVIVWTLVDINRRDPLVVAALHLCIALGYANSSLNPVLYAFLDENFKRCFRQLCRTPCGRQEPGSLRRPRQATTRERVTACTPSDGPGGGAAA
T3 sequence (P34975 whole entry): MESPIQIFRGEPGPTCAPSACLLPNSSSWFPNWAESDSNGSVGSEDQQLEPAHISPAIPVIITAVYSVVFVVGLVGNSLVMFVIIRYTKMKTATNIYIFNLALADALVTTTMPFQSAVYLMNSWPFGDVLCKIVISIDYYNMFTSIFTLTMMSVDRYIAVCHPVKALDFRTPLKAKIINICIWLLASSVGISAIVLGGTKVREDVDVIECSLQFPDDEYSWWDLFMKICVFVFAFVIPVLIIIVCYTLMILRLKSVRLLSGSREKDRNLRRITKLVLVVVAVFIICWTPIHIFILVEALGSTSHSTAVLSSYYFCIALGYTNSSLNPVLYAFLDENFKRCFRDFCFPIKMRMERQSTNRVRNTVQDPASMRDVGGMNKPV
T4 sequence (P33534 whole entry): as the sequence (P34975 whole entry) above, with E11D, A17S, P51S, V308A counted along it
T7 sequence (P32300 whole entry): as the sequence (P32300 whole entry) above
T5 sequence (P33534 whole entry): as the sequence (P34975 whole entry) above, with E11D, A17S, P51S, V308A counted along it
T6 sequence (P42866 whole entry): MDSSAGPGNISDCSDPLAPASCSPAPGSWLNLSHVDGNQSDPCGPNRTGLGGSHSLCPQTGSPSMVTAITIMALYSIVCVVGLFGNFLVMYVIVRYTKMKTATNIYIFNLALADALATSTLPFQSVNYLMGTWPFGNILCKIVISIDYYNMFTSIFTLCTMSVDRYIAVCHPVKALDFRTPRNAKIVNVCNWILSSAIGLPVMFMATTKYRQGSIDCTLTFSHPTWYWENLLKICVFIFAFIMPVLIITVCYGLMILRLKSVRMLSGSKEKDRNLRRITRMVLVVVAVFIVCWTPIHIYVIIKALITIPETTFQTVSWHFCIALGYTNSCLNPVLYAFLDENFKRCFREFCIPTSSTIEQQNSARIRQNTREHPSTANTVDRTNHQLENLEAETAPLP

SMILES: CC(C)[C@@H](CN1CC[C@@](C)(c2cccc(O)c2)[C@@H](C)C1)NC(=O)[C@H]1Cc2ccc(O)cc2CN1 [JDTic]
- stress-induced reinstatement of cocaine-seeking behavior [1]: block stress-induced reinstatement

SMILES: C[C@@H]1C(=O)N[C@@H](Cc2ccccc2)C(=O)N[C@H](Cc2c[nH]c3ccccc23)C(=O)N[C@@H](Cc2ccccc2)C(=O)N1C [JVA 3001] (HELM PEPTIDE1{F.[C[C@H](C(=O)[*:2])N(C)[*:1]].F.[dW]}$PEPTIDE1,PEPTIDE1,1:R1-4:R2$$$V2.0)
- Ki (κ opioid receptors (KOR); [4]): 68.9 nM
- Ki (μ opioid receptors (MOR); [5]): 58.1 nM
- Ki (δ opioid receptors (DOR); [6]): 5690 nM

SMILES: C[C@H]1NC(=O)[C@H](Cc2ccccc2)NC(=O)[C@H]2CCCN2C(=O)[C@H](Cc2ccccc2)NC1=O [JVA 3002]
- Ki (κ opioid receptors (KOR); [4]): 1250 nM
- Ki (μ opioid receptors (MOR); [5]): 774 nM
- Ki (δ opioid receptors (DOR); [6]): 11000 nM

SMILES: C[C@@H]1NC(=O)[C@H]2CCCN2C(=O)[C@H](Cc2ccccc2)NC(=O)[C@@H](Cc2c[nH]c3ccccc23)NC1=O [JVA 3004] (HELM PEPTIDE1{A.[dW].F.[dP]}$PEPTIDE1,PEPTIDE1,1:R1-4:R2$$$V2.0)
- Ki (κ opioid receptors (KOR); [4]): 169 nM
- Ki (μ opioid receptors (MOR); [5]): 186 nM
- Ki (δ opioid receptors (DOR); [6]): 18000 nM

SMILES: O=C1N[C@@H](Cc2ccccc2)C(=O)N2CCC[C@@H]2C(=O)N[C@@H](Cc2ccccc2)C(=O)N[C@H]1Cc1c[nH]c2ccccc12 [JVA-2801, cyclo[Trp-Phe-D-Pro-Phe]] (HELM PEPTIDE1{F.W.F.[dP]}$PEPTIDE1,PEPTIDE1,1:R1-4:R2$$$V2.0)
- Ki (κ opioid receptors (KOR); [7]): 35.4 ± 3.6 nM
- Ki (μ opioid receptors (MOR); [8]): 619 ± 87 nM
- Ki (δ opioid receptors (DOR); [9]): 4150 ± 3020 nM
- Cyclase screen (% control) (κ opioid receptors): 119%
- agonist activity in the 55° C. warm water tail withdrawal assay (C57B1/6J mice [2]): can function as agonists; also recorded: robust agonist activity
- reversal of agonist activity by the KOR selective antagonist nor-BNI (C57B1/6J mice [2]; i.c.v. peptide): partially reversed
- reversal of agonist activity by the MOR selective antagonist β-FNA (C57B1/6J mice [2]; i.c.v. peptide): completely reversed
- antagonism of the KOR selective agonist U50,488 (KOR): dose-dependent antagonism
- Ki (KOR in mouse brain): ~21 nM

SMILES: O=C1N[C@H](Cc2c[nH]c3ccccc23)C(=O)N[C@@H](Cc2ccccc2)C(=O)N2CCC[C@@H]2C(=O)N[C@H]1Cc1ccccc1 [JVA-2802, cyclo[D-Trp-Phe-D-Pro-Phe]] (HELM PEPTIDE1{F.[dP].F.[dW]}$PEPTIDE1,PEPTIDE1,1:R1-4:R2$$$V2.0)
- Ki (κ opioid receptors (KOR); [7]): 30.6 ± 3.4 nM
- Ki (μ opioid receptors (MOR); [8]): 259 ± 29 nM
- Ki (δ opioid receptors (DOR); [9]): 2910 ± 1350 nM
- Cyclase screen (% control) (κ opioid receptors): 127%
- agonist activity in the 55° C. warm water tail withdrawal assay (C57B1/6J mice [2]): did not show any agonist activity; also recorded: did not exhibit any agonist activity
- duration of KOR antagonist activity (KOR): less than a day
- antagonism of the KOR selective agonist U50,488 (KOR): dose-dependent antagonism
- antagonism of the MOR selective agonist morphine (MOR): does not antagonize
- antagonism of the DOR selective agonist SNC-80 (DOR): does not antagonize
- stress-induced reinstatement of cocaine conditioned place preference (C57B1/6J mice [3]): blocks stress-induced reinstatement

SMILES: C[C@@H]1NC(=O)[C@H](Cc2c[nH]c3ccccc23)NC(=O)[C@H](Cc2ccccc2)NC(=O)[C@H]2CCCN2C1=O [JVA-2803, cyclo[Trp-Ala-D-Pro-Phe]] (HELM PEPTIDE1{A.[dP].F.W}$PEPTIDE1,PEPTIDE1,1:R1-4:R2$$$V2.0)
- Ki (κ opioid receptors (KOR); [7]): 8.03 ± 1.67 nM
- fold higher KOR affinity than the parent peptide (κ opioid receptors (KOR); relative to parent (Phe) peptide / CJ-15,208): 4 fold
- Ki (μ opioid receptors (MOR); [8]): 32.1 ± 3.9 nM
- fold higher MOR affinity than JVA-2801 (μ opioid receptors (MOR); relative to JVA-2801): 19 fold
- Ki (δ opioid receptors (DOR); [9]): 8680 ± 1270 nM
- Cyclase screen (% control) (κ opioid receptors): 122%
- agonist activity in the 55° C. warm water tail withdrawal assay (C57B1/6J mice [2]): can function as agonists; also recorded: more potent than JVA-2801
- pattern of opioid activity in vivo (C57B1/6J mice [2]): exhibit both agonist activity and KOR antagonist activity
- duration of KOR antagonist activity (KOR): less than a day
- antagonism of the KOR selective agonist U50,488 (KOR): more potent than JVA-2801
- antagonism of the KOR selective agonist U50,488 (KOR; listed as 2803): exhibits KOR antagonist activity

SMILES: C[C@@H]1NC(=O)[C@@H](Cc2c[nH]c3ccccc23)NC(=O)[C@H](Cc2ccccc2)NC(=O)[C@H]2CCCN2C1=O [JVA-3003, cyclo[D-Trp-Ala-D-Pro-Phe]] (HELM PEPTIDE1{A.[dP].F.[dW]}$PEPTIDE1,PEPTIDE1,1:R1-4:R2$$$V2.0)
- Ki (κ opioid receptors (KOR); [7]): 3.15 ± 0.41 nM
- Ki (κ opioid receptors (KOR); [4]): 2.81 nM
- Ki (μ opioid receptors (MOR); [5]): 27.3 nM
- Ki (δ opioid receptors (DOR); [9]): 8330 ± 1220 nM
- Ki (δ opioid receptors (DOR); [6]): 833 nM
- Cyclase screen (% control) (κ opioid receptors): 75%
- agonist activity in the 55° C. warm water tail withdrawal assay (C57B1/6J mice [2]): can function as an agonist; also recorded: robust agonist activity
- pattern of opioid activity in vivo (C57B1/6J mice [2]): exhibits a pattern similar to the L-Trp peptides
- duration of KOR antagonist activity (KOR): less than a day
- antagonism of the KOR selective agonist U50,488 (KOR): exhibits KOR antagonist activity
